pIC50: −log10 of the molar value.
Biological target: T1, Full length human recombinant HDAC8 protein (Homo sapiens, UniProt Q9BY41)
T1 construct: Full length human recombinant HDAC8 protein was expressed in baculoviral system; made in house
T1 sequence (Q9BY41 1-377): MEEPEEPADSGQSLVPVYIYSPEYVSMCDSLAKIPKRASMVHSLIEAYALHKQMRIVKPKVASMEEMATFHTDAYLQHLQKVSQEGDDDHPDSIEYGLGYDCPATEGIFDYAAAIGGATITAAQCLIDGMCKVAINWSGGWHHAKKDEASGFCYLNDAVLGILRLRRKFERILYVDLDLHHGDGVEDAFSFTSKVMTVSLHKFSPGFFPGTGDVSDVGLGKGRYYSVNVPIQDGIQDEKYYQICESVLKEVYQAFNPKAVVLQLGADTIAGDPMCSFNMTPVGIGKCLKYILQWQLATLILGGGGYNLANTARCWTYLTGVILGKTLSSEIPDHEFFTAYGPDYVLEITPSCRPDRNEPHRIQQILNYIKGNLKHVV
Experiment: In vitro histone deacetylase assay: enzymatic HDAC8 assay, electrophoretic mobility shift
Assay type: biochemical
Conditions: substrate RHKK(Ac)-NH2, 1 nM enzyme, compounds listed under IC50 range headings
In short: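 Readout was microfluidic mobility-shift separation of deacetylated product from fluorescent RHKK(Ac)-NH2 substrate (2 µM), after reaction with 1 nM recombinant full-length human HDAC8 at 25 °C, pH 7.5, stopped with SDS. Twelve 3-fold-spaced concentrations tested; product/sum ratios normalized to controls and fitted with a 4-parameter model for IC50.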

SMILES | pIC50
O=C(/C=C/c1cccnc1CNc1ccc(-c2ccccc2)c(C(F)(F)F)c1)NO [Example I-217, (E)-N-hydroxy-3-(2-(((2-(trifluoromethyl)-[1,1′-biphenyl]-4-yl)amino)methyl)pyridin-3-yl)acrylamide] | > 6.00
Cc1nn(C)c(Cl)c1S(=O)(=O)NC1CCN(c2ccccc2/C=C/C(=O)NO)CC1 [Example I-218, (E)-3-(2-(4-((5-chloro-1,3-dimethyl-1H-pyrazole)-4-sulfonamido)piperidin-1-yl)phenyl)-N-hydroxyacrylamide] | > 6.00
Cc1noc(C)c1S(=O)(=O)NC1CCN(c2ccccc2/C=C/C(=O)NO)CC1 [Example I-220, (E)-3-(2-(4-((3,5-dimethylisoxazole)-4-sulfonamido)piperidin-1-yl)phenyl)-N-hydroxyacrylamide] | > 6.00
CCS(=O)(=O)NC1CCN(c2ccccc2/C=C/C(=O)NO)CC1 [Example I-227, (E)-3-(2-(4-(ethylsulfonamido)piperidin-1-yl)phenyl)-N-hydroxyacrylamide] | > 6.00
O=C(/C=C/c1ccccc1N1CCC(NS(=O)(=O)Cc2ccc(F)cc2)CC1)NO [Example I-228, (E)-3-(2-(4-(((4-fluorophenyl)methyl)sul-fonamido)piperidin-1-yl)phenyl)-N-hydroxyacrylamide] | > 6.00
O=C(/C=C/c1ccccc1N1CCC(NS(=O)(=O)Cc2cccc(Cl)c2)CC1)NO [Example I-229, (E)-3-(2-(4-(((3-chlorophenyl)methyl)sul-fonamido)piperidin-1-yl)phenyl)-N-hydroxyacrylamide] | > 6.00
Cn1ccnc1S(=O)(=O)NC1CCN(c2ccccc2C=CC(=O)NO)CC1 [Example I-230, (E)-N-hydroxy-3-(2-(4-((1-methyl-1H-imidazole)-2-sulfonamido)-piperidin-1-yl)phenyl)acrylamide] | > 6.00
O=C(/C=C/c1ccccc1N1CCC(NS(=O)(=O)c2cccc3cnccc23)CC1)NO [Example I-232, (E)-N-hydroxy-3-(2-(4-(isoquinoline-5-sulfonamido)piperidin-1-yl)phenyl)acrylamide] | > 6.00
O=C(/C=C/c1ccccc1N1CCC(NS(=O)(=O)Cc2cccc(F)c2)CC1)NO [Example I-235, (E)-3-(2-(4-(((3-fluorophenyl)methyl)sul-fonamido)piperidin-1-yl)phenyl)-N-hydroxyacrylamide] | > 6.00
Cn1cnc(S(=O)(=O)NC2CCN(c3ccccc3/C=C/C(=O)NO)CC2)c1 [Example I-237, (E)-N-hydroxy-3-(2-(4-((1-methyl-1H-imidazole)-4-sulfonamido)piperidin-1-yl)phenyl)acrylamide] | > 6.00
COc1ccccc1S(=O)(=O)NC1CCN(c2ccccc2/C=C/C(=O)NO)CC1 [Example I-238, (E)-N-hydroxy-3-(2-(4-((2-methoxyphenyl)sulfon-amido)piperidin-1-yl)phenyl)acrylamide] | > 6.00
O=C(/C=C/c1ccccc1N1CCC(NS(=O)(=O)Cc2ccc(Cl)cc2F)CC1)NO [Example I-239, (E)-3-(2-(4-(((4-chloro-2-fluorophenyl)methyl)sul-fonamido)piperidin-1-yl)phenyl)-N-hydroxyacrylamide] | > 6.00
O=C(/C=C/c1ccccc1N1CCC(NS(=O)(=O)c2ccc(CNC(=O)c3ccccc3)s2)CC1)NO [Example I-240, (E)-N-((5-(N-(1-(2-(3-(hydroxyamino)-3-oxoprop-1-en-1-yl)phenyl)piperidin-4-yl)sulfamoyl)thiophen-2-yl)methyl)benzamide] | > 6.00
O=C(/C=C/c1ccccc1N1CCC(NS(=O)(=O)C2CC2)CC1)NO [Example I-241] | > 6.00
COc1ccc(OC)c(S(=O)(=O)NC2CCN(c3ccccc3/C=C/C(=O)NO)CC2)c1 [Example I-242, (E)-3-(2-(4-((2,5-dimethoxyphenyl)sulfon-amido)piperidin-1-yl)phenyl)-N-hydroxyacrylamide] | > 6.00
Cc1nn(C)c(Cl)c1S(=O)(=O)N1CCN(c2ccccc2/C=C/C(=O)NO)CC1 [Example I-243, (E)-3-(2-(4-((5-chloro-1,3-dimethyl-1H-pyrazol-4-yl)sulfonyl)piperazin-1-yl)phenyl)-N-hydroxyacrylamide] | > 6.00
Cn1ccc(S(=O)(=O)N2CCN(c3ccccc3/C=C/C(=O)NO)CC2)n1 [Example I-244, (E)-N-hydroxy-3-(2-(4-((1-methyl-1H-pyrazol-3-yl)sulfonyl)piperazin-1-yl)phenyl)acrylamide] | > 6.00
Cc1noc(C)c1S(=O)(=O)N1CCN(c2ccccc2/C=C/C(=O)NO)CC1 [Example I-245, (E)-3-(2-(4-((3,5-dimethylisoxazol-4-yl)sulfonyl)piperazin-1-yl)phenyl)-N-hydroxyacrylamide] | > 6.00

Other lines, results leading:

pIC50 | SMILES
> 6.00 | O=C(/C=C/c1ccccc1N1CCC(NS(=O)(=O)c2cccnc2)CC1)NO [Example I-221, (E)-N-hydroxy-3-(2-(4-(pyridine-3-sulfonamido)piperidin-1-yl)phenyl)acrylamide]
> 6.00 | O=C(/C=C/c1ccccc1N1CCC(NS(=O)(=O)c2ccc(F)cc2)CC1)NO [Example I-222, (E)-3-(2-(4-((4-fluorophenyl)sulfonamido)piperidin-1-yl)phenyl)-N-hydroxyacrylamide]
> 6.00 | O=C(/C=C/c1ccccc1N1CCC(NS(=O)(=O)c2ccc(Cl)cc2)CC1)NO [Example I-223, (E)-3-(2-(4-((4-chlorophenyl)sulfonamido)piperidin-1-yl)phenyl)-N-hydroxyacrylamide]
> 6.00 | O=C(/C=C/c1ccccc1N1CCC(NS(=O)(=O)c2ccc(C(F)(F)F)cc2)CC1)NO [Example I-224, (E)-N-hydroxy-3-(2-(4-((4-(trifluoromethyl)phenyl)-sulfonamido)piperidin-1-yl)phenyl)acrylamide]
> 6.00 | CC(C)c1ccc(S(=O)(=O)NC2CCN(c3ccccc3/C=C/C(=O)NO)CC2)cc1 [Example I-225, (E)-N-hydroxy-3-(2-(4-((4-isopropylphenyl)sulfon-amido)piperidin-1-yl)phenyl)acrylamide]
> 6.00 | O=C(/C=C/c1ccccc1N1CCC(NS(=O)(=O)c2ccc(C(F)(F)F)nc2)CC1)NO [Example I-226, (E)-N-hydroxy-3-(2-(4-((6-(trifluoromethyl)pyridine)-3-sulfonamido)piperidin-1-yl)phenyl)acrylamide]
> 6.00 | O=C(/C=C/c1ccccc1N1CCC(NS(=O)(=O)c2ccc3c(c2)OCCO3)CC1)NO [Example I-231, (E)-3-(2-(4-((2,3-dihydrobenzo[b][1,4]dioxine)-6-sulfonamido)piperidin-1-yl)phenyl)-N-hydroxyacrylamide]
> 6.00 | COc1ccc(S(=O)(=O)NC2CCN(c3ccccc3/C=C/C(=O)NO)CC2)cc1OC [Example I-233]
> 6.00 | O=C(/C=C/c1ccccc1N1CCC(NS(=O)(=O)c2ccc(OC(F)F)cc2)CC1)NO [Example I-234, (E)-3-(2-(4-((4-(difluoromethoxy)phenyl)sulfonamido)piperidin-1-yl)phenyl)-N-hydroxyacrylamide]
> 6.00 | O=C(/C=C/c1ccccc1N1CCC(NS(=O)(=O)c2ccc3c(c2)NC(=O)CO3)CC1)NO [Example I-236, (E)-N-hydroxy-3-(2-(4-((3-oxo-3,4-dihydro-2H-benzo[b][1,4]oxazine)-6-sulfonamido)piperidin-1-yl)phenyl)acrylamide]
